Results as given in patent US9216964B2, “Hedgehog pathway modulators” (Novartis AG, priority 2008, dated 2015).

System: hedgehog signaling pathway
Test: Gli-Luc Reporter Assay for Hh Pathway Inhibition (TMHh-12 cells, pTA-8×Gli-Luc reporter)
Format: cell-based, Mouse
Conditions: Mus musculus, TMHh12, Ag1.5 1 nM; read-out: Hedgehog Inhibition IC50 (nM) (Ag1.5 1 nM)
Description: Compounds of the present invention are assayed to evaluate their capacity to inhibit the hedgehog signaling pathway.
Gli-Luc Reporter Assay for Hh Pathway Inhibition
Mouse TM3 cells (obtained from American Type Culture Collection, ATCC, Manassas, Va.) are cultured in DMEM/F12 medium (Gibco/Invitrogen, Carlsbad, Calif.) supplemented with 5% heat inactivated horse serum and 2.5% FBS (Gibco/Invitrogen, Carlsbad, Calif.), 50 unit/mL penicillin and 50 μg/mL of streptomycin (Gibco/Invitrogen, Carlsbad, Calif.) at […] with 5% CO2 in air atmosphere. TM3 cells were transfected with pTA-8×Gli-Luc reporter plasmid. A stably transfected clone termed TMHh-12 was selected. […] To evaluate the IC50s of the antagonists, 8000 TMHh-12 cells were plated into each wells in 384-well plates with 50% DMEM/F12 medium supplemented with 2% FBS. After 12 hours, Hh pathway is activated by adding recombinant mouse Shh protein (expressed in E. coli, 8 μg/mL) or by adding Smo agonists. The testing compounds are added into plates with different concentrations. After 48 hours, the firefly luciferase luciferase activities are assayed with the Bright-Glo™ Luciferase Assay System (Promega, Madison, Wis.). The IC50 is measured when the effect of the compound reduces the luminescence signal by 50%. Toxicity of these compounds are evaluated in TM3 cells using CellTiter Glo assays or by TM3-Luc cell line (a TM3 cell stably transfected with a constitutive luciferase expression vector).

| IC50 | SMILES |
| --- | --- |
| 0.1 nM | Cc1ccc(Nc2cccc3c2CCN(S(C)(=O)=O)C3)cc1-c1nc2ccccc2[nH]1 [Compound 5] |
| 0.73 nM | OC1CCC(N2CCc3c(cccc3Nc3ccc(Cl)c(-c4ncc(-c5ccccc5)[nH]4)c3)C2)CC1 (centres unmarked) [Compound 37] |
| 0.45 nM | CC(CO)(CO)C(=O)N1CCc2c(cccc2Nc2ccc(Cl)c(-c3ncc(-c4ccccc4)[nH]3)c2)C1 [Compound 2] |

Same assay, conditions: Mus musculus, TMHh12, enzymatic and cellular assays for the inhibition of hedgehog signaling pathways; read-out: IC50 Ranges

| SMILES | IC50 |
| --- | --- |
| Cc1ccc(Nc2cccc3c2CCN(S(C)(=O)=O)C3)cc1-c1ccc(C(=O)N(CCO)CCO)cc1 [Compound 147] | 1000 to 10000 nM |
| Cc1ccc(Nc2ncnc3c2CCN(C2CS(=O)(=O)C2)C3)cc1-c1cc2ccccc2cn1 [Compound 304] | 10 to 100 nM |
| Cc1ccc(Nc2nccc3c2CCN(S(C)(=O)=O)C3)cc1-c1ccc(C#N)cc1 [Compound 125] | 10 to 100 nM |
| COc1cccc(-c2cc(Nc3cccc4c3CCN(S(C)(=O)=O)C4)ccc2C)n1 [Compound 165] | 100 to 1000 nM |
| Cc1ccc(Nc2cccc3c2CCN(S(C)(=O)=O)C3)cc1-c1cccc(F)n1 [Compound 218] | 10 to 100 nM |
| Cc1ccc(Nc2cccc3c2CCN(S(C)(=O)=O)C3)cc1-c1ccc(CNCC(O)CO)cc1 (centres unmarked) [Compound 157] | 1000 to 10000 nM |
| Cc1ccc(Nc2cccc3c2CCN(S(C)(=O)=O)C3)cc1-c1ccc(C(=O)N(C)C)cc1 [Compound 138] | 100 to 1000 nM |
| Cc1ccc(Nc2cccc3c2CCN(S(C)(=O)=O)C3)cc1C(=O)N(CCO)c1ccccc1 [Compound 194] | 100 to 1000 nM |
| Cc1ccc(Nc2cccc3c2CCN(S(C)(=O)=O)C3)cc1-c1ccc(C(N)=O)cc1 [Compound 142] | 100 to 1000 nM |
| Cc1ccc(Nc2cccc3c2CCN(S(C)(=O)=O)C3)cc1-c1ccc(-c2ccccc2)cc1 [Compound 109] | 100 to 1000 nM |
| CN(C)Cc1ccc(Nc2cccc3c2CCN(S(C)(=O)=O)C3)cc1-c1ccc(C#N)cc1 [Compound 179] | 100 to 1000 nM |
| Cc1ccc(Nc2cccc3c2CCN(S(C)(=O)=O)C3)cc1-c1cnn(C)c1 [Compound 128] | 100 to 1000 nM |
| Cc1ncc(Nc2cccc3c2CCN(S(C)(=O)=O)C3)cc1-c1ccc(F)cn1 [Compound 202] | 10 to 100 nM |
| Cc1ccc(Nc2cccc3c2CCN(S(C)(=O)=O)C3)cc1-c1ccc(C(=O)NCC(O)CO)cc1 (centres unmarked) [Compound 146] | 1000 to 10000 nM |
| Cc1ccc(-c2nc(Nc3cccc4c3CCN(CCS(C)(=O)=O)C4)ccc2C)nc1 [Compound 309] | 10 to 100 nM |
| O=C(O)C(=O)N1CCc2c(cccc2Nc2ccc(Cl)c(-c3ncc(-c4ccccc4)[nH]3)c2)C1 [Compound 83] | 10 to 100 nM |
| Cc1ccc(Nc2ncnc3c2CCN(S(C)(=O)=O)C3)cc1-c1ccc(F)cn1 [Compound 298] | 10 to 100 nM |
| CS(=O)(=O)N1CCc2c(cccc2Nc2cc(-c3nc4ccccc4[nH]3)c(Cl)cn2)C1 [Compound 126] | 10 to 100 nM |

| SMILES | IC50 |
| --- | --- |
| CCOc1cnc(-c2nc(Nc3cccc4c3CCN(S(C)(=O)=O)C4)ccc2C)cn1 [Compound 333] | 10 to 100 nM |
| CS(=O)(=O)N1CCc2c(cccc2Nc2ccc(F)c(-c3ccc(C#N)cc3)c2)C1 [Compound 131] | 10 to 100 nM |
| COc1ccc(-c2cc(Nc3cccc4c3CCN(CCS(C)(=O)=O)C4)ccc2C)nn1 [Compound 258] | 1 to 10 nM |
| CS(=O)(=O)N1CCc2c(cccc2Nc2ccc(Cl)c(-c3ccc(C#N)cc3)c2)C1 [Compound 134] | 10 to 100 nM |
| Cc1ccc(Nc2cccc3c2CCN(C[C@H](O)CO)C3)cc1-c1ccc(F)cn1 [Compound 195] | 1 to 10 nM |
| Cc1ccc(Nc2cccc3c2CCN(S(C)(=O)=O)C3)cc1-c1ccc(C#N)cn1 [Compound 154] | 1 to 10 nM |
| Cc1ccc(Nc2cccc3c2CCN(CCS(C)(=O)=O)C3)cc1-c1ccc(C(F)(F)F)cn1 [Compound 259] | 1 to 10 nM |
| CC(=O)c1ccc(-c2cc(Nc3cccc4c3CCN(S(C)(=O)=O)C4)ccc2C)cc1 [Compound 114] | 100 to 1000 nM |
| CCOc1ccc(-c2cc(Nc3cccc4c3CCN([C@H]3CCS(=O)(=O)C3)C4)ccc2C)nn1 [Compound 340] | 1 to 10 nM |
| Cc1ccc(Nc2cccc3c2CCN(S(C)(=O)=O)C3)cc1-c1cc2ccccc2n1C [Compound 152] | 10 to 100 nM |
| CCS(=O)(=O)CCN1CCc2c(cccc2Nc2ccc(C)c(-c3ccc(F)cn3)c2)C1 [Compound 281] | 1 to 10 nM |
| CCOc1ccc(-c2cc(Nc3cccc4c3CCN(C3CCS(=O)(=O)CC3)C4)ccc2C)nn1 [Compound 327] | 1 to 10 nM |
| CNC(=O)c1ccc(Nc2cccc3c2CCN(S(C)(=O)=O)C3)cc1-c1ccc(C#N)cc1 [Compound 180] | 100 to 1000 nM |
| CCOc1ccc(-c2nc(Nc3cccc4c3CCN(C3CS(=O)(=O)C3)C4)ccc2C)nn1 [Compound 329] | 10 to 100 nM |
| OC[C@H](O)[C@@H](O)CN1CCc2c(cccc2Nc2ccc(Cl)c(-c3ncc(-c4ccccc4)[nH]3)c2)C1 [Compound 48] | 1 to 10 nM |
| COc1cnc(-c2cc(Nc3cccc4c3CCN(C3CCS(=O)(=O)C3)C4)ccc2C)cn1 (centres unmarked) [Compound 266] | 1 to 10 nM |
| Cc1ccc(Nc2cccc3c2CCN(S(C)(=O)=O)C3)cc1-c1ccc(OC(F)(F)F)cc1 [Compound 137] | 10 to 100 nM |
| Cc1ccc(Nc2cccc3c2CCN(S(C)(=O)=O)C3)cc1-c1ncc(-c2ccc(CN(C)C)cc2)[nH]1 [Compound 106] | 1 to 10 nM |

Second part, the compound after the results:

| IC50 | SMILES |
| --- | --- |
| 1 to 10 nM | COc1ccc(-c2nc(Nc3cccc4c3CCN(S(=O)(=O)C(C)C)C4)ccc2C)nn1 [Compound 319] |
| 0.001 to 1 nM | O=C([C@@H](O)CO)N1CCc2c(cccc2Nc2ccc(Cl)c(-c3nc(-c4ccccc4)c[nH]3)c2)C1 [Compound 27] |
| 0.001 to 1 nM | Cc1cnc(-c2cc(Nc3cccc4c3CCN(S(C)(=O)=O)C4)ccc2C)cc1C [Compound 241] |
| 1 to 10 nM | CC(C(=O)O)N1CCc2c(cccc2Nc2ccc(Cl)c(-c3ncc(-c4ccccc4)[nH]3)c2)C1 (centres unmarked) [Compound 58] |
| 1 to 10 nM | CCOc1ccc(-c2cc(Nc3cccc4c3CCN([C@@H]3CCS(=O)(=O)C3)C4)ccc2C)nn1 [Compound 339] |
| 0.001 to 1 nM | Cc1ccc(Nc2ncnc3c2CCN(S(=O)(=O)C(C)C)C3)cc1-c1ccc(F)cn1 [Compound 300] |
| 0.001 to 1 nM | Cc1ccc(Nc2cccc3c2CCN(CC(C)(C)F)C3)cc1-c1ccc(C#N)cn1 [Compound 198] |
| 1 to 10 nM | Cc1ccc(Nc2cccc3c2CCN(CCS(C)(=O)=O)C3)cc1-c1ccc(F)cn1 [Compound 232] |
| 1 to 10 nM | Cc1ccc(Nc2cccc3c2CCN(CC2(C)CC2)C3)cc1-c1nc2ccccc2[nH]1 [Compound 97] |
| 0.001 to 1 nM | Cc1ccc(Nc2cccc3c2CCN(S(C)(=O)=O)C3)cc1-c1ncc(Cl)cc1F [Compound 290] |
| 1 to 10 nM | Cc1ccc(-c2cc(Nc3ncnc4c3CCN(S(=O)(=O)C(C)C)C4)ccc2C)nc1 [Compound 292] |
| 0.001 to 1 nM | O=S(=O)(NCCO)N1CCc2c(cccc2Nc2ccc(Cl)c(-c3ncc(-c4ccccc4)[nH]3)c2)C1 [Compound 17] |
| 1 to 10 nM | Cc1ccc(-c2cc(Nc3cccc4c3CCN(CC(C)(C)C)C4)ccc2C)nc1 [Compound 213] |
| 0.001 to 1 nM | CCS(=O)(=O)N1CCc2c(ncnc2Nc2ccc(C)c(-c3ccc(C)cn3)c2)C1 [Compound 293] |
| 1 to 10 nM | [O-][S+]1CCC([N+]2([O-])CCc3c(cccc3Nc3ccc(Cl)c(-c4ncc(-c5ccccc5)[nH]4)c3)C2)CC1 (centres unmarked) [Compound 26] |
| 0.001 to 1 nM | CC(=O)N1CCc2c(cccc2Nc2ccc(Cl)c(-c3ncc(-c4ccccc4)[nH]3)c2)C1 [Compound 56] |
| 0.001 to 1 nM | COc1ccc(NC(=O)c2cc(Nc3cccc4c3CCN(S(C)(=O)=O)C4)ccc2C)cc1 [Compound 161] |
| 1 to 10 nM | COc1ccc(-c2cc(Nc3cccc4c3CCN(S(C)(=O)=O)C4)ccc2C)nn1 [Compound 183] |
| 1 to 10 nM | Cc1ccc(-c2cc(Nc3cccc4c3CCN(CC(=O)N(C)C)C4)ccc2C)nc1 [Compound 233] |
| 0.001 to 1 nM | Cc1ccc(Nc2cccc3c2CCN(S(C)(=O)=O)C3)cc1-c1nc2ccccc2[nH]1 [Compound 5] |
| 1 to 10 nM | Cc1ccc(Nc2cccc3c2CCN(S(C)(=O)=O)C3)cc1-c1ncc(F)cc1F [Compound 272] |
| 0.001 to 1 nM | OC1CCC(N2CCc3c(cccc3Nc3ccc(Cl)c(-c4ncc(-c5ccccc5)[nH]4)c3)C2)CC1 (centres unmarked) [Compound 37] |
| 1 to 10 nM | C[C@H](O)C(=O)N1CCc2c(cccc2Nc2ccc(Cl)c(-c3ncc(-c4ccccc4)[nH]3)c2)C1 [Compound 20] |
| 0.001 to 1 nM | CC(CO)(CO)C(=O)N1CCc2c(cccc2Nc2ccc(Cl)c(-c3ncc(-c4ccccc4)[nH]3)c2)C1 [Compound 2] |
| 0.001 to 1 nM | Cc1ccc(Nc2cccc3c2CCN(CCS(C)(=O)=O)C3)cc1-c1ccc(Cl)cn1 [Compound 257] |
| 0.001 to 1 nM | COc1ccc(-c2cc(Nc3cccc4c3CCN(S(C)(=O)=O)C4)ccc2C)nc1 [Compound 174] |
| 0.001 to 1 nM | Cc1ccnc(-c2cc(Nc3cccc4c3CCN(S(C)(=O)=O)C4)ccc2C)c1 [Compound 192] |
| 0.001 to 1 nM | Cc1ccc(Nc2cccc3c2CCN(S(C)(=O)=O)C3)cc1-c1ccc2ccccc2n1 [Compound 231] |
| 0.001 to 1 nM | O=C(O)C1(C(=O)N2CCc3c(cccc3Nc3ccc(Cl)c(-c4ncc(-c5ccccc5)[nH]4)c3)C2)CC1 [Compound 68] |

Same assay, conditions: enzymatic and cellular assays for the inhibition of hedgehog signaling pathways; read-out: IC50 Ranges

| IC50 | SMILES |
| --- | --- |
| 1 to 10 nM | Cc1ccc(Nc2cccc3c2CCN([C@@H]2CCS(=O)(=O)C2)C3)cc1-c1ncccc1F [Compound 287] |
| 10 to 100 nM | Cc1ccc(Nc2cccc3c2CCN(C2CCS(=O)(=O)CC2)C3)cc1-c1ncc(-c2cccnc2)[nH]1 [Compound 52] |
| 1 to 10 nM | CCOc1ccc(-c2cc(Nc3cccc4c3CCN(C3CCS(=O)(=O)C3)C4)ccc2C)nn1 (centres unmarked) [Compound 323] |
